Where two headings read alike, the source gives them in different places. Values belong to the molecule of their own block, whether it stands above or below them.
How the values were obtained:
[1] = tested on: recombinant guanylate cyclase reporter cell line; experiment: sGC-activating activity in the CHO reporter cell in vitro; assay type: cell-based; conditions: read-out: MEC (minimum effective concentration)
Procedure: B-2. Action at a Recombinant Guanylate Cyclase Reporter Cell Line
The cellular action of the compounds according to the invention is determined at a recombinant guanylate cyclase reporter cell line, as described in F. Wunder et al., Anal. Biochem. 32, 104-112 (2005).

[2] = tested on: saphenous artery rings; experiment: Vasorelaxant effect in vitro (phenylephrine-contracted saphenous artery rings); parameters: species or system Rabbits; conditions: rabbit saphenous artery rings, read-out: IC50 (concentration reducing phenylephrine-induced contraction by 50%)
Procedure: B-3. Vasorelaxant Effect In Vitro
Rabbits are anaesthetized and sacrificed by intravenous injection of thiopental sodium (about 50 mg/kg) and exsanguinated. The saphenous artery is removed and divided into rings 3 mm wide. The rings are mounted singly on in each case a pair of triangular hooks open at the end and made of 0.3 mm-thick special wire (Remanium®). Each ring is placed under an initial tension in 5 ml organ baths with Krebs-Henseleit solution which is at 37° C., is gassed with carbogen and has the following composition: NaCl 119 mM; KCl 4.8 mM; CaCl2×2 H2O 1 mM; MgSO4×7H2O 1.4 mM; KH2PO4 1.2 mM; NaHCO3 25 mM; glucose 10 mM; bovine serum albumin 0.001%. The force of contraction is detected with Statham UC2 cells, amplified and digitized via A/D converters (DAS-1802 HC, Keithley Instruments, Munich) and recorded in parallel on chart recorders. Contractions are induced by addition of phenylephrine.
After several (generally 4) control cycles, the substance to be investigated is added in each further run in increasing dosage, and the level of the contraction achieved under the influence of the test substance is compared with the level of the contraction reached in the last preceding run. The concentration necessary to reduce the contraction reached in the preceding control by 50% is calculated from this (IC50). The standard application volume is 5 μl. The proportion of DMSO in the bath solution corresponds to 0.1%.

[3] = target: T1, haem-containing recombinant soluble guanylate cyclase (sGC) (Rattus norvegicus, UniProt P20595); experiment: Stimulation of recombinant soluble guanylate cyclase (sGC) in vitro, haem-containing enzyme; assay type: biochemical
T1 construct: made in house; host or cells: Sf9 insect cells (baculovirus)
T1 sequence (P20595 1-619): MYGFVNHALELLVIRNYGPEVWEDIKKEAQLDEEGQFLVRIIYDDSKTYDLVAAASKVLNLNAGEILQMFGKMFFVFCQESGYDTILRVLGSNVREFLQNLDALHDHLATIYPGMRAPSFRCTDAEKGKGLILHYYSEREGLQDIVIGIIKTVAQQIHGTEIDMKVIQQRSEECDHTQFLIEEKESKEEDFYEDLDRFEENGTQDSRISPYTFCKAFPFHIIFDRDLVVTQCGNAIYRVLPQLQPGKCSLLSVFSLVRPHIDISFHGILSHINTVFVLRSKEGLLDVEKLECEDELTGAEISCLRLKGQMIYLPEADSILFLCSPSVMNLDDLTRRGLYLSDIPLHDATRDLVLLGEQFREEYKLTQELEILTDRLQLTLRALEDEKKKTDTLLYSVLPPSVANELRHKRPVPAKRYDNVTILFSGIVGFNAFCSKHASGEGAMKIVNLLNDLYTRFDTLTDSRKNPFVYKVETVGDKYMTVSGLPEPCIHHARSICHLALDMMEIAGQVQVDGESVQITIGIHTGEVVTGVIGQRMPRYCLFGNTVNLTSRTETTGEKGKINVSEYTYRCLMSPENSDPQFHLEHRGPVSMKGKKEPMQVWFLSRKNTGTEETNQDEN
T1 sequence (P19686 1-690 partner): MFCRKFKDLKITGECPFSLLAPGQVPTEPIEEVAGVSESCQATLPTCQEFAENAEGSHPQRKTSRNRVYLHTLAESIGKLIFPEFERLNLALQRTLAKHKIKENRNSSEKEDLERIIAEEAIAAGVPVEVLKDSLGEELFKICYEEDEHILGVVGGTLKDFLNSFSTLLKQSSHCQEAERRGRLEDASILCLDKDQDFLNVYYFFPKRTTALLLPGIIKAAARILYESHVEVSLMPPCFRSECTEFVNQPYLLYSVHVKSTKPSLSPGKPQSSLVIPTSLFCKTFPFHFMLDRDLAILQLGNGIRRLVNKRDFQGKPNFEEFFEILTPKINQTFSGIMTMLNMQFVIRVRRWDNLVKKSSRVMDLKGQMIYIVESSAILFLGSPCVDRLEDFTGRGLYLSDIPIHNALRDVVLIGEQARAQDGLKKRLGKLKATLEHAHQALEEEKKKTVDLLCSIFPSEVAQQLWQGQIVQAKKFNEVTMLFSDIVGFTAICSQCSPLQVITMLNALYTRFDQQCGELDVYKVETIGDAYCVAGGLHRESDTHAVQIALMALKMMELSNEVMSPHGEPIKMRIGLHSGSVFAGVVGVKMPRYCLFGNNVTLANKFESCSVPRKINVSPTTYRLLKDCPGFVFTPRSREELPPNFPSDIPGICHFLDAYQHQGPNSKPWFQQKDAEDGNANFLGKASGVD
Procedure: (§1) B-1. Stimulation of Recombinant Soluble Guanylate Cyclase (sGC) In Vitro
(§2) Investigations on the stimulation of recombinant soluble guanylate cyclase (sGC) by the compounds according to the invention with and without sodium nitroprusside, and with and without the haem-dependent sGC inhibitor 1H-1,2,4-oxadiazolo[4,3a]quinoxalin-1-one (ODQ), are carried out by the method described in detail in the following reference: M. Hoenicka, E. M. Becker, H. Apeler, T. Sirichoke, H. Schroeder, R. Gerzer and J.-P. Stasch, “Purified soluble guanylyl cyclase expressed in a baculovirus/Sf9 system: Stimulation by YC-1, nitric oxide, and carbon oxide”, J. Mol. Med 77 (1999), 14-23. The haem-free guanylate cyclase is obtained by adding Tween 20 to the sample buffer (0.5% in the final concentration).
The activation of sGC by a test substance is reported as x-fold stimulation of the basal activity. The result for Example 2 is shown in Table 1A, that for Example 23 in Table 1B and that for Example 39 in Table 1C:
[DEA/NO=2-(N,N-diethylamino)diazenolate 2-oxide; ODQ=1H-1,2,4-oxadiazolo-[4,3a]quinoxalin-1-one].

[4] = target: T2, haem-free recombinant soluble guanylate cyclase (sGC) (Rattus norvegicus, UniProt P20595); experiment: Stimulation of recombinant soluble guanylate cyclase (sGC) in vitro, haem-free enzyme; assay type: biochemical
T2 construct: made in house; host or cells: Sf9 insect cells (baculovirus)
T2 sequence (P20595 1-619): T1 sequence (P20595 1-619)
T2 sequence (P19686 1-690 partner): T1 sequence (P19686 1-690 partner)
Procedure: as §1, §2
The activation of sGC by a test substance is reported as x-fold stimulation of the basal activity. The result for Example 2 is shown in Table 1A, that for Example 23 in Table 1B and that for Example 39 in Table 1C: […]

IC50 [2]: 41.8 nM
Compound: O=C(O)CCCCN(CCc1ccccc1OCc1ccc(CCc2ccccc2)cc1)C1CCCc2nc(C(=O)O)ccc21 (single isomer, unassigned) [Example 14]
minimal effective concentration [1]: 30 nM

IC50 [2]: 0.2 nM
Compound: O=C(O)CCCCN(CCc1ccccc1OCc1ccc(CCc2ccc(F)cc2)cc1)C1CCCc2nc(C(=O)O)ccc21 (single isomer, unassigned) [Example 15]
minimal effective concentration [1]: 0.3 nM

IC50 [2]: 15.5 nM
Compound: O=C(O)CCCCN(CCc1ccccc1OCc1ccc(CCc2ccc(F)cc2)cc1)C1CCCc2nc(C(=O)O)ccc21 (single isomer, unassigned) [Example 16]
minimal effective concentration [1]: 3 nM

IC50 ([2]; Oryctolagus cuniculus): 0.4 nM
Compound: O=C(O)CCCCN(CCc1ccccc1OCc1ccc(-c2ccc(C(F)(F)F)cc2)cc1)C1CCCc2nc(C(=O)O)ccc21 (single isomer, unassigned) [Example 18]
minimal effective concentration [1]: 0.3 nM

IC50 [2]: 571 nM
Compound: Cc1ccc2oc(-c3ccc(COc4ccccc4CCN(CCCCC(=O)O)C4CCCc5nc(C(=O)O)ccc54)cc3)nc2c1 (single isomer, unassigned; enantiomer 1) [Example 1, (−)-5-{(4-Carboxybutyl)[2-(2-{[4-(5-methyl-1,3-benzoxazol-2-yl)benzyl]oxy}phenyl)ethyl]-amino}-5,6,7,8-tetrahydroquinoline-2-carboxylic acid (Enantiomer 1)]
minimal effective concentration [1]: 160 nM

The remaining lines, values behind:

Compound: CC(C)(C)c1ccc(COc2ccccc2CCN(CCCCC(=O)O)C2CCCc3nc(C(=O)O)ccc32)cc1 (single isomer, unassigned) [Example 4]
minimal effective concentration [1]: 0.5 nM
IC50 ([2]; Oryctolagus cuniculus): 0.3 nM

Compound: O=C(O)c1ccc(CCN(CCc2ccccc2OCc2ccc(-c3ccc(C(F)(F)F)cc3)cc2Cl)C2CCCc3nc(C(=O)O)ccc32)cc1 (single isomer, unassigned; enantiomer 2) [Example 23, 5-{[2-(4-Carboxyphenyl)ethyl][2-(2-{[3-chloro-4′-(trifluoromethyl)biphenyl-4-yl]methoxy}-phenyl)ethyl]amino}-5,6,7,8-tetrahydroquinoline-2-carboxylic acid (Enantiomer 2)]
minimal effective concentration [1]: 0.7 nM
Effect of combination with the NO donor DEA/NO on sGC stimulation [3]: no synergistic effect
Stimulation (x-fold), haem-containing sGC, basal ([3]; test compound 0.01 μM): 8.3 ± 1.1 x-fold
Stimulation (x-fold), haem-containing sGC, +0.1 μM DEA/NO ([3]; test compound 0.01 μM): 24.5 ± 4.4 x-fold
Stimulation (x-fold), haem-containing sGC, +10 μM ODQ ([3]; test compound 0.01 μM): 16.9 ± 3.3 x-fold
Stimulation (x-fold), haem-containing sGC, basal ([3]; test compound 0.1 μM): 54.2 ± 11.9 x-fold
Stimulation (x-fold), haem-containing sGC, +0.1 μM DEA/NO ([3]; test compound 0.1 μM): 77.1 ± 9.2 x-fold
Stimulation (x-fold), haem-containing sGC, +10 μM ODQ ([3]; test compound 0.1 μM): 105.4 ± 18.0 x-fold
Stimulation (x-fold), haem-containing sGC, basal ([3]; test compound 1.0 μM): 108.7 ± 16.3 x-fold
Stimulation (x-fold), haem-containing sGC, +0.1 μM DEA/NO ([3]; test compound 1.0 μM): 155.2 ± 20.7 x-fold
Stimulation (x-fold), haem-containing sGC, +10 μM ODQ ([3]; test compound 1.0 μM): 216.1 ± 28.9 x-fold
Stimulation (x-fold), haem-containing sGC, basal ([3]; test compound 10 μM): 135.7 ± 20.0 x-fold
Stimulation (x-fold), haem-containing sGC, +0.1 μM DEA/NO ([3]; test compound 10 μM): 180.4 ± 22.9 x-fold
Stimulation (x-fold), haem-containing sGC, +10 μM ODQ ([3]; test compound 10 μM): 227.0 ± 31.7 x-fold
Stimulation (x-fold), haem-containing sGC, basal ([3]; test compound 100 μM): 180.5 ± 21.2 x-fold
Stimulation (x-fold), haem-containing sGC, +0.1 μM DEA/NO ([3]; test compound 100 μM): 241.0 ± 34.4 x-fold
Stimulation (x-fold), haem-containing sGC, +10 μM ODQ ([3]; test compound 100 μM): 261.7 ± 32.1 x-fold
Stimulation (x-fold), haem-free sGC, basal ([4]; test compound 0.01 μM): 52.5 ± 3.8 x-fold
Stimulation (x-fold), haem-free sGC, basal ([4]; test compound 0.1 μM): 184.3 ± 15.4 x-fold
Stimulation (x-fold), haem-free sGC, basal ([4]; test compound 1.0 μM): 284.7 ± 18.8 x-fold
Stimulation (x-fold), haem-free sGC, basal ([4]; test compound 10 μM): 310.4 ± 22.6 x-fold
Stimulation (x-fold), haem-free sGC, basal ([4]; test compound 100 μM): 342.0 ± 27.6 x-fold

Compound: O=C(O)c1ccc(CCN(CCc2cc(F)ccc2OCc2ccc(-c3nc4cc(Cl)ccc4o3)cc2)C2CCCc3nc(C(=O)O)ccc32)cc1 (single isomer, unassigned; enantiomer 2) [Example 39, 5-{[2-(4-Carboxyphenyl)ethyl][2-(2-{[4-(5-chloro-1,3-benzoxazol-2-yl)benzyl]oxy}-5-fluorophenyl)ethyl]amino}-5,6,7,8-tetrahydroquinoline-2-carboxylic acid (Enantiomer 2)]
minimal effective concentration [1]: 1 nM
Effect of combination with the NO donor DEA/NO on sGC stimulation [3]: no synergistic effect
Stimulation (x-fold), haem-containing sGC, basal ([3]; test compound 0.01 μM): 17.4 ± 2.4 x-fold
Stimulation (x-fold), haem-containing sGC, +0.1 μM DEA/NO ([3]; test compound 0.01 μM): 46.5 ± 2.8 x-fold
Stimulation (x-fold), haem-containing sGC, +10 μM ODQ ([3]; test compound 0.01 μM): 42.0 ± 4.9 x-fold
Stimulation (x-fold), haem-containing sGC, basal ([3]; test compound 0.1 μM): 73.0 ± 7.7 x-fold
Stimulation (x-fold), haem-containing sGC, +0.1 μM DEA/NO ([3]; test compound 0.1 μM): 115.5 ± 11.9 x-fold
Stimulation (x-fold), haem-containing sGC, +10 μM ODQ ([3]; test compound 0.1 μM): 145.6 ± 14.7 x-fold
Stimulation (x-fold), haem-containing sGC, basal ([3]; test compound 1.0 μM): 96.6 ± 8.5 x-fold
Stimulation (x-fold), haem-containing sGC, +0.1 μM DEA/NO ([3]; test compound 1.0 μM): 145.2 ± 15.9 x-fold
Stimulation (x-fold), haem-containing sGC, +10 μM ODQ ([3]; test compound 1.0 μM): 182.5 ± 17.6 x-fold
Stimulation (x-fold), haem-containing sGC, basal ([3]; test compound 10 μM): 108.6 ± 9.0 x-fold
Stimulation (x-fold), haem-containing sGC, +0.1 μM DEA/NO ([3]; test compound 10 μM): 159.4 ± 17.9 x-fold
Stimulation (x-fold), haem-containing sGC, +10 μM ODQ ([3]; test compound 10 μM): 188.7 ± 16.5 x-fold
Stimulation (x-fold), haem-containing sGC, basal ([3]; test compound 100 μM): 143.6 ± 13.4 x-fold
Stimulation (x-fold), haem-containing sGC, +0.1 μM DEA/NO ([3]; test compound 100 μM): 192.1 ± 24.6 x-fold
Stimulation (x-fold), haem-containing sGC, +10 μM ODQ ([3]; test compound 100 μM): 208.5 ± 19.0 x-fold
Stimulation (x-fold), haem-free sGC, basal ([4]; test compound 0.01 μM): 39.0 ± 5.8 x-fold
Stimulation (x-fold), haem-free sGC, basal ([4]; test compound 0.1 μM): 176.9 ± 29.9 x-fold
Stimulation (x-fold), haem-free sGC, basal ([4]; test compound 1.0 μM): 284.9 ± 54.5 x-fold
Stimulation (x-fold), haem-free sGC, basal ([4]; test compound 10 μM): 311.5 ± 55.9 x-fold
Stimulation (x-fold), haem-free sGC, basal ([4]; test compound 100 μM): 309.4 ± 54.8 x-fold

From patent publication US10053428B2, “5-aminotetrahydroquinoline-2-carboxylic acids and their use” (BAYER PHARMA AKTIENGESELLSCHAFT, priority 2012, dated 2018)
